Measured values as given in patent US12377110B2, “Fospropofol methods and compositions” (Epalex Corporation, priority 2019, dated 2025).

Key:
[1] = Linear regression of log fospropofol/propofol exposure (Cmax, AUC1, AUC2, AUC4) on time-to-treatment, migraine subjects vs healthy volunteers
Description: (§1) Values for healthy volunteers are shown on the left.
as §1
Values for healthy Volunteers are shown on the left.
as §1, §1, §1

[2] = Study No. 15-3 toxicokinetics of fospropofol and propofol in plasma; assay type: in vivo, Sprague-Dawley rats; settings: for AUC(0-t): Propofol AUC0-6 hr
Description: The purpose of Study No. 15-3 (GLP) was to determine the potential toxicity of fospropofol in Sprague-Dawley rats when administered once daily by oral gavage for 14 days. […] The cause of death for the three 250 mg/kg/day group main study females found dead could not be determined, but was considered related to the pharmacodynamic effects of fospropofol, based on the time of death relative to the time of close administration, and the clinical signs recorded before death. Clinical observations during the closing period for these animals included labored breathing, prostrate, splayed hindlimbs, uncoordinated movement, decreased activity, and eyes closed.

[3] = Study No. 15-4 toxicokinetics of fospropofol and propofol in plasma; assay type: in vivo, Beagle dogs; settings: for Propofol AUC0-6hr increase after 14 days compared with Day 1 / Propofol Cmax increase after 14 days compared with Day 1: 160-mg/kg
Description: The purpose of Study No. 15-4 (GLP) was to determine the potential toxicity of fospropofol in Beagle dogs when administered once daily by oral gavage for 14 days. […] Because the treatment-related clinical observations (consistent with the expected transient sedative actions of fospropofol) and effects on hematology and clinical chemistry parameters were considered nonadverse, the NOAEL was determined to be 160 mg/kg/day (3200 mg/m^2/day).

[4] = Study A17: PK of fospropofol and propofol after single oral dose of fospropofol disodium 800 mg in subjects with migraine
Description: The study is planned to complete approximately 85 subjects. • Enrolled subjects will be asked to come to the study site for treatment when they experience a qualifying migraine headache. Dosing must occur within 4 hours after onset of the migraine symptoms. If treatment at the study site is not feasible or practicable within 4 hours after onset of migraine symptoms, subjects should use their usual medication for that headache and attempt to visit the clinic for treatment as soon as possible (within 4 hours) after onset of their next migraine headache. Dosing must occur within 60 days after enrollment (see Post-enrollment Period below). • At clinic check-in for treatment, study personnel will verify eligibility for closing regarding the criteria for a qualifying headache and adherence to post-enrollment study restrictions (see Eligibility for Dosing below). • Treatment will consist of a single oral dose of fospropofol disodium. […] Because the prevalence of migraine headaches is higher in women than in men, efforts will be made to enroll at least 50% women. • Subjects must meet the general inclusion and exclusion criteria listed below (Inclusion Criteria and Exclusion Criteria) at screening to be enrolled in the study. To be eligible for fospropofol disodium treatment after onset of a migraine headache, enrolled subjects must meet criteria specific to the presenting headache at clinic check-in (see Qualifying Headache below) and adhere to study restrictions specific to the period between enrollment and clinic check-in (see Post-enrollment Restrictions below). • Inclusion Criteria Subjects must meet all of the following criteria at screening to be enrolled in the study: • 1. Written informed consent approved by the Institutional Review Board (IRB) given before any study-related procedures are performed • 2. […] Complete abstinence alone can be used as a method of contraception. • 6. […] Able to comprehend the nature of the study, capable of giving written informed consent, and able to communicate effectively with clinic staff (as assessed by the investigator) • 8. Available to volunteer for the entire study duration and willing to adhere to all protocol requirements, including the post-enrollment restrictions (see Post-enrollment Restrictions below) • 9. Agrees not to post any information related to the study on any website or social media site (e.g., Facebook, Twitter, LinkedIn, Google+, etc.) until the entire trial has been completed • 10. Willing to forgo rescue medicine for at least 2 hours after initiation of treatment with study drug (see In-Clinic Rescue Medicine) • Exclusion Criteria Subjects to whom any of the following criteria apply at screening will be excluded: • 1. History of hemiplegic migraine (at any time in the past). • 2. History of headaches of any type occurring on ≥15 days/month during any of the 3 months prior to screening. • 3.

[5] = Study No. 15-1 (non-GLP): MTD and 7-day once daily oral gavage toxicity of fospropofol disodium; assay type: in vivo, Sprague-Dawley rats; settings: rat, in vivo; oral gavage, Sprague-Dawley rats
Description: (§2) The purpose of Study No. 15-1 (non-GLP) was to determine the maximum tolerated close (MTD) of fospropofol when administered by oral gavage to Sprague-Dawley rats (Phase 1) and to evaluate the potential toxicity of fospropofol in Sprague-Dawley rats when administered once daily by oral gavage for 7 days (Phase 2).

Sprague-Dawley rats = experiment: as above; assay type: in vivo
Description: as §2

With `CC(C)c1cccc(C(C)C)c1O` [propofol, 2,6-diisopropylphenol] as the molecule, how does the “p of inverse linear association between log of the ratio AUC1 propofol to AUC1 fospropofol and time-to-treatment” value ([1]; migraine subjects) read?
Its value is 0.150.

What about the “p of inverse linear association between log of the ratio AUC2 propofol to AUC2 fospropofol and time-to-treatment” value ([1]; migraine subjects) of the same molecule?
The value was 0.157.

And the “p of difference in distribution of log of the ratio AUC1 propofol to AUC1 fospropofol between migraine subjects and healthy volunteers” value ([1]; migraine subjects vs healthy volunteers)?
Its value is 0.0367.

What about the “Increase of propofol Cmax and AUC0-6hr with fospropofol dose” value ([2]; Days 1 and 14) of the same molecule?
The value was “approximately close-proportional”.

What about the “Propofol AUC0-6hr following repeated administration” value ([2]; female rats) of the same molecule?
The value was “appeared to increase”.

And the “Propofol AUC0-6hr following repeated administration” value ([2]; male rats)?
Its value is “did not appear to change”.

What about the AUC(0-t) ([2]; male, Sprague-Dawley, rat, plasma, po, 50 mg/kg, oral gavage fospropofol disodium, Male, 50 mg/kg, Day 1) of the same molecule?
Its AUC(0-t) is 219 ng·h/mL.

And the AUC(0-t) ([2]; male, Sprague-Dawley, rat, plasma, po, 50 mg/kg, oral gavage fospropofol disodium, Male, 50 mg/kg, Day 14)?
Its AUC(0-t) is 416 ng·h/mL.

What about the Cmax ([2]; male, Sprague-Dawley, rat, plasma, po, 50 mg/kg, Propofol Cmax, oral gavage fospropofol disodium, Male, 50 mg/kg, Day 14) of the same molecule?
The Cmax was 301 ng/mL.

And the Tmax ([2]; male, Sprague-Dawley, rat, plasma, po, 50 mg/kg, Propofol Tmax, oral gavage fospropofol disodium, Male, 50 mg/kg, Day 14)?
The Tmax was 15 min.

What about the “Dependence of systemic exposure on sex” value ([2]; rats, 14 days oral gavage fospropofol disodium) of the same molecule?
Its value is “greater exposure in females”.

And the “Propofol AUC0-6hr increase after 14 days compared with Day 1” value ([3]; females)?
Its value is “over 5 fold”.

And the “Propofol Cmax increase after 14 days compared with Day 1” value ([3]; females)?
Its value is about 3 fold.

What about the “Propofol AUC0-6hr increase after 14 days compared with Day 1” value ([3]; males) of the same molecule?
Its value is “over 2 fold”.

And the “Propofol Cmax increase after 14 days compared with Day 1” value ([3]; males)?
Its value is “about 7 fold”.

And the Tmax ([3]; Beagle, dog, plasma, po, Propofol Tmax, most groups)?
Its Tmax is 5 to 60 min.

And the “Increase of propofol Cmax and AUC0-6hr with dose” value ([3]; Day 1, both sexes)?
The value was “close proportional”.

What about the “Increase of propofol Cmax and AUC0-6hr with dose” value ([3]; Day 14, both sexes) of the same molecule?
The value was “more than close proportional”.

And the half-life ([3]; female, Beagle, dog, plasma, po, females)?
Its half-life is 30 to 78 min.

And the half-life ([3]; male, Beagle, dog, plasma, po, males)?
The half-life was 48 to 108 min.

What about the “Variability in propofol log AUC1 accounted for by time-to-treatment” value ([4]; 800 mg, 11 migraine subjects) of the same molecule?
Its value is about 63%.

What about the “Variability in propofol log AUC2 accounted for by time-to-treatment” value ([4]; 800 mg, 11 migraine subjects) of the same molecule?
Its value is about 55%.

What about the “Variability in propofol log AUC4 accounted for by time-to-treatment” value ([4]; 800 mg, 11 migraine subjects) of the same molecule?
Its value is about 40%.

What about the “Variability in propofol log Cmax accounted for by time-to-treatment” value ([4]; 800 mg, 11 migraine subjects) of the same molecule?
The value was about 57%.

What about the “Association between time-to-treatment and log propofol Cmax, AUC1, AUC2, AUC4” value ([4]; 800 mg, 11 migraine subjects (all female)) of the same molecule?
The value was “statistically significant inverse association”.

And the “Decrease of geometric mean propofol AUC1 per hour of delay in time-to-treatment” value ([4]; 800 mg, linear regression)?
The value was 67.2 % per hour.

And the “Decrease of geometric mean propofol AUC1 per minute of delay in time-to-treatment” value ([4]; 800 mg, linear regression)?
The value was 1.84 % per minute.

And the “Decrease of geometric mean propofol AUC2 per hour of delay in time-to-treatment” value ([4]; 800 mg, linear regression)?
Its value is 62.5 % per hour.

And the “Decrease of geometric mean propofol AUC2 per minute of delay in time-to-treatment” value ([4]; 800 mg, linear regression)?
Its value is 1.62 % per minute.

And the “Decrease of geometric mean propofol AUC4 per hour of delay in time-to-treatment” value ([4]; 800 mg, linear regression)?
The value was 47.7 % per hour.

And the “Decrease of geometric mean propofol AUC4 per minute of delay in time-to-treatment” value ([4]; 800 mg, linear regression)?
Its value is 1.08 % per minute.

And the “Decrease of geometric mean propofol Cmax per hour of delay in time-to-treatment” value ([4]; 800 mg, linear regression)?
The value was 58.5 % per hour.

And the “Decrease of geometric mean propofol Cmax per minute of delay in time-to-treatment” value ([4]; 800 mg, linear regression)?
Its value is 1.45 % per minute.

What about the “Ratio of mean propofol Auc4, migraine subjects (all female) to female healthy volunteers” value ([4]; Study A17 vs. Study A16 800 mg Cohort, females only) of the same molecule?
The value was 91%.

With `CC(C)c1cccc(C(C)C)c1OCOP(=O)([O-])O.[Na+]` [fospropofol disodium] as the molecule, how does the MTD at 7 days [5] read?
Its MTD at 7 days is 250 mg/kg/day.

And the Mortality (Sprague-Dawley rats; 150 mg/kg/day, Day 7, approximately 30 minutes postdose)?
Its Mortality is “one 150 mg/kg/day TK female was found dead”.

What about the MTD (Sprague-Dawley rats; oral gavage, Sprague-Dawley rats) of the same molecule?
Its MTD is 1500 mg/m^2/day.

And the Tolerability (Sprague-Dawley rats; oral gavage, single fospropofol doses up to 300 mg/kg or 150 and 250 mg/kg/day once daily for 7 days)?
The Tolerability was “well tolerated at all closes”.
